In the supplement of paper PMC10307832:

What was measured:
Assay in all cases: relative viability (nuclei count vs DMSO), 5 days (fraction); higher = more cells survive
AZ505 + Foretinib = compound: C1CCC(CC1)N(CCNCCC2=C3C(=C(C=C2)O)NC(=O)CO3)C(=O)CCNCCC4=CC(=C(C=C4)Cl)Cl [AZ505] + COc1cc2c(Oc3ccc(NC(=O)C4(C(=O)Nc5ccc(F)cc5)CC4)cc3F)ccnc2cc1OCCCN1CCOCC1 [Foretinib] (partner 0.25 µM)
Outline: (§1)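 Lung cancer cell lines were seeded in 1536-well plates and dosed by pin tool the next day, with either a single drug or a fixed anchor-drug dose combined with five library-drug doses (not always all listed) spaced in √10 steps. Five days later, one step fixed the cells and stained their nuclei (final 0.05% Triton X-100, 1% formaldehyde, 1 ug/ml Hoechst), and nuclei were counted on 4× images. Relative viability is the nuclei count in treated wells divided by the count in vehicle wells, and each value is the median of duplicate plates.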

AZ505 + Lapatinib = compound: C1CCC(CC1)N(CCNCCC2=C3C(=C(C=C2)O)NC(=O)CO3)C(=O)CCNCCC4=CC(=C(C=C4)Cl)Cl [AZ505] + CS(=O)(=O)CCNCc1ccc(-c2ccc3ncnc(Nc4ccc(OCc5cccc(F)c5)c(Cl)c4)c3c2)o1 [Lapatinib] (partner 2 µM)
Outline: as §1

Dactolisib + Dasatinib = compound: Cn1c(=O)n(-c2ccc(C(C)(C)C#N)cc2)c2c3cc(-c4cnc5ccccc5c4)ccc3ncc21 [Dactolisib] + Cc1nc(Nc2ncc(C(=O)Nc3c(C)cccc3Cl)s2)cc(N2CCN(CCO)CC2)n1 [Dasatinib] (partner 0.075 µM)
Outline: as §1

Dactolisib + Olaparib = compound: Cn1c(=O)n(-c2ccc(C(C)(C)C#N)cc2)c2c3cc(-c4cnc5ccccc5c4)ccc3ncc21 [Dactolisib] + O=C(c1cc(Cc2n[nH]c(=O)c3ccccc23)ccc1F)N1CCN(C(=O)C2CC2)CC1 [Olaparib] (partner 8 µM)
Outline: as §1

UMC-11
relative viability (AZ505 + Foretinib; first compound 0.08 µM): 0.975 | relative viability (AZ505 + Foretinib; first compound 0.253 µM): 1.15 | relative viability (AZ505 + Foretinib; first compound 0.8 µM): 0.922 | relative viability (AZ505 + Foretinib; first compound 2.53 µM): 1.09 | relative viability (AZ505 + Foretinib; first compound 8 µM): 1.11 | relative viability (AZ505 + Lapatinib; first compound 0.08 µM): 0.86 | relative viability (AZ505 + Lapatinib; first compound 0.253 µM): 0.943 | relative viability (AZ505 + Lapatinib; first compound 0.8 µM): 0.901 | relative viability (AZ505 + Lapatinib; first compound 2.53 µM): 1.11 | relative viability (AZ505 + Lapatinib; first compound 8 µM): 0.976 | relative viability (Dactolisib + Dasatinib; first compound 0.002 µM): 0.496 | relative viability (Dactolisib + Dasatinib; first compound 0.006325 µM): 0.419 | relative viability (Dactolisib + Dasatinib; first compound 0.02 µM): 0.37 | relative viability (Dactolisib + Dasatinib; first compound 0.06325 µM): 0.253 | relative viability (Dactolisib + Dasatinib; first compound 0.2 µM): 0.219 | relative viability (Dactolisib + Olaparib; first compound 0.002 µM): 0.36 | relative viability (Dactolisib + Olaparib; first compound 0.006325 µM): 0.317 | relative viability (Dactolisib + Olaparib; first compound 0.02 µM): 0.306 | relative viability (Dactolisib + Olaparib; first compound 0.06325 µM): 0.202 | relative viability (Dactolisib + Olaparib; first compound 0.2 µM): 0.193
